Test results as given in patent US12421282B2, “Compositions and methods for the treatment of metabolic and liver disorders” (priority 2021, dated 2025).
Where two headings read alike, the source gives them in different places. *1 amine or outer side, *2 acyl side, *3 side chain or, on linkers, in order; H or OH if unused. Where a SMILES comes first, the peptide text is derived from it. Side-chain parts run from the residue outwards. [ ]: non-standard residue; d: D form. The star is where a group is joined. Nonadecanoyl(19-PO3H2) = O=C(CCCCCCCCCCCCCCCCCCP(=O)(O)O)*; γGlu = O=C(O)[C@H](CCC(=O)[*:2])N[*:1]; AEEA = NCCOCCOCC(=O)O; Aib = CC(C)(N)C(=O)O

Columns and labels:
[1] = parameters: species or system cynomolgus monkeys; details: cynomolgus monkey, in vivo
Protocol: Subcutaneous (SC) dosing of the compounds in a vehicle of 0.1% bovine serum albumin in phosphate buffered saline solution was performed with male cynomolgus monkeys. […] Samples were obtained at 1, 4, 8, 12, 24, 48, 72, 96, 120, 168, 192, 240 and 336 hours after the single dose was administered.

[2] = target: T1, human recombinant GIP receptor (Homo sapiens, UniProt P48546); test: TagLite binding assay, GIP receptor, without and with 2% HSA
T1 sequence (P48546 22-466): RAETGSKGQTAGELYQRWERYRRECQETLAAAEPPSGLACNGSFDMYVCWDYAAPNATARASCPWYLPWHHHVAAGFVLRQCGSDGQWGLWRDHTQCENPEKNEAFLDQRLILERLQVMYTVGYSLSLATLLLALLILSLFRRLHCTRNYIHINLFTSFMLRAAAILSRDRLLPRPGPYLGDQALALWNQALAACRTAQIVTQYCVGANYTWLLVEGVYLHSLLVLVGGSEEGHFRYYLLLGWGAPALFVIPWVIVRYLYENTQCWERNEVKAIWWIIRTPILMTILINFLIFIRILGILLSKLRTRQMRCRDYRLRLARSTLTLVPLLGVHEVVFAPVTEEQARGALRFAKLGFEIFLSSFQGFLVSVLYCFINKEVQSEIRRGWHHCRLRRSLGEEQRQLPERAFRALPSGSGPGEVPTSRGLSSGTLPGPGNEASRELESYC
Excerpt: (§1) Binding data for Compounds 15-25, for two human recombinant G protein coupled receptors, GLP-1 and GIP, was obtained using […]® binding assay and Epics Therapeutics cell lines. The binding assay was repeated in the presence of 2% human serum albumin (HSA). Compounds 16, 21, and 22 have an HSA ratio for the GLP-1 receptor of 7.1, 7.6, and 7.8, respectively. Compounds 15, 18, and 23 have an HSA ratio for the GIP receptor of 7.3, 4.3, and 6.4, respectively. A lower HSA ratio indicates greater binding affinity for the receptor than for albumin when compared to a compound with a greater HSA ratio.

[3] = target: human recombinant GLP-1 receptor (Homo sapiens, UniProt P43220); test: TagLite binding assay, GLP-1 receptor, without and with 2% HSA
Sequence of human recombinant GLP-1 receptor (P43220 24-463): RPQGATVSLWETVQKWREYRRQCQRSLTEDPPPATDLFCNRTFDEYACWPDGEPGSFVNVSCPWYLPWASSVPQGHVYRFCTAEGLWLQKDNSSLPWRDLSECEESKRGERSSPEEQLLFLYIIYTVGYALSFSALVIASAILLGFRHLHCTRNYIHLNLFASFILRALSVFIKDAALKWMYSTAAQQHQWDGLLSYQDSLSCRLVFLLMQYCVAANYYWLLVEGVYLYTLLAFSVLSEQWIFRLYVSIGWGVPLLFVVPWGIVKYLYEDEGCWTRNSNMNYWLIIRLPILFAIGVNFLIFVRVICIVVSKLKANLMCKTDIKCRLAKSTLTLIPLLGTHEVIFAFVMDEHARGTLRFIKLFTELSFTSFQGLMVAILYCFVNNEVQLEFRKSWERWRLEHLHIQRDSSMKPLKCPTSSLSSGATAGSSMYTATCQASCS
Excerpt: as §1

SMILES: CC[C@H](C)[C@H](NC(=O)[C@H](CC(C)C)NC(=O)[C@H](Cc1c[nH]c2ccccc12)NC(=O)[C@H](CCC(N)=O)NC(=O)[C@@H](NC(=O)[C@H](Cc1ccccc1)NC(=O)[C@H](C)NC(=O)[C@H](CCCCNC(=O)COCCOCCNC(=O)COCCOCCNC(=O)CC[C@H](NC(=O)CCCCCCCCCCCCCCCCCCP(=O)(O)O)C(=O)O)NC(=O)[C@H](CCC(N)=O)NC(=O)[C@H](C)NC(=O)[C@@H](NC(=O)[C@H](CCCNC(=N)N)NC(=O)[C@H](CC(=O)O)NC(=O)[C@H](CC(C)C)NC(=O)C(C)(C)NC(=O)[C@@H](NC(=O)[C@H](CO)NC(=O)[C@H](Cc1ccc(O)cc1)NC(=O)[C@H](CC(=O)O)NC(=O)[C@H](CO)NC(=O)[C@@H](NC(=O)[C@H](Cc1ccccc1)NC(=O)[C@@H](NC(=O)CNC(=O)[C@H](CCC(=O)O)NC(=O)C(C)(C)NC(=O)[C@@H](N)Cc1ccc(O)cc1)[C@@H](C)O)[C@@H](C)O)[C@@H](C)CC)[C@@H](C)CC)C(C)C)C(=O)N[C@@H](C)C(=O)NCC(=O)NCC(=O)N1CCC[C@H]1C(=O)N[C@@H](CO)C(=O)N[C@@H](CO)C(=O)NCC(=O)N[C@@H](C)C(=O)N1CCC[C@H]1C(=O)N1CCC[C@H]1C(=O)N1CCC[C@H]1C(=O)N[C@@H](CO)C(N)=O [Compound 16] (H-Y[Aib]EGTFTSDYSI[Aib]LDRIAQK([AEEA-AEEA-γGlu-Nonadecanoyl(19-PO3H2)])AFVQWLIAGGPSSGAPPPS-NH2)
- AUC(0-inf) ([1]; sc, 0.2 mg/kg): 144 µg·h/mL
- AUC(0-t) ([1]; sc, 0.2 mg/kg): 138 µg·h/mL
- Cmax ([1]; sc, 0.2 mg/kg): 1570 ng/mL
- Tmax ([1]; sc, 0.2 mg/kg): 9.33 h
- half-life ([1]; sc, 0.2 mg/kg): 2.92 days

SMILES: CC[C@H](C)[C@H](NC(=O)[C@H](CC(C)C)NC(=O)[C@H](Cc1c[nH]c2ccccc12)NC(=O)[C@H](CCC(N)=O)NC(=O)[C@@H](NC(=O)[C@H](Cc1ccccc1)NC(=O)[C@H](C)NC(=O)[C@H](CCCCNC(=O)COCCOCCNC(=O)COCCOCCNC(=O)CC[C@H](NC(=O)CCCCCCCCCCCCCCCCCCP(=O)(O)O)C(=O)O)NC(=O)[C@H](CCC(N)=O)NC(=O)[C@H](C)NC(=O)[C@@H](NC(=O)[C@H](CCCCN)NC(=O)[C@H](CC(=O)O)NC(=O)[C@H](CC(C)C)NC(=O)C(C)(C)NC(=O)[C@@H](NC(=O)[C@H](CO)NC(=O)[C@H](Cc1ccc(O)cc1)NC(=O)[C@H](CC(=O)O)NC(=O)[C@H](CO)NC(=O)[C@@H](NC(=O)[C@H](Cc1ccccc1)NC(=O)[C@@H](NC(=O)CNC(=O)[C@H](CCC(=O)O)NC(=O)C(C)(C)NC(=O)[C@@H](N)Cc1ccc(O)cc1)[C@@H](C)O)[C@@H](C)O)[C@@H](C)CC)[C@@H](C)O)C(C)C)C(=O)N[C@@H](C)C(=O)NCC(=O)NCC(=O)N1CCC[C@H]1C(=O)N[C@@H](CO)C(=O)N[C@@H](CO)C(=O)NCC(=O)N[C@@H](C)C(=O)N1CCC[C@H]1C(=O)N1CCC[C@H]1C(=O)N1CCC[C@H]1C(=O)N[C@@H](CO)C(N)=O [Compound 23] (H-Y[Aib]EGTFTSDYSI[Aib]LDKTAQK([AEEA-AEEA-γGlu-Nonadecanoyl(19-PO3H2)])AFVQWLIAGGPSSGAPPPS-NH2)
- IC50 ([2]; 2% human serum albumin, read-out: GIP receptor IC50 2% HSA): 5.63 µM
- IC50 ([2]; no HSA, read-out: GIP receptor IC50 No HSA): 0.873 µM
- IC50 ([3]; 2% human serum albumin, read-out: GLP-1 receptor IC50 2% HSA): 3120 nM
- IC50 ([3]; no HSA, read-out: GLP-1 receptor IC50 No HSA): 400 nM
- AUC(0-inf) ([1]; sc, 0.2 mg/kg): 574 µg·h/mL
- AUC(0-t) ([1]; sc, 0.2 mg/kg): 439 µg·h/mL
- Cmax ([1]; sc, 0.2 mg/kg): 2940 ng/mL
- Tmax ([1]; sc, 0.2 mg/kg): 34.7 h
- half-life ([1]; sc, 0.2 mg/kg): 6.64 days
- mean half life as compared to tirzepatide (in words) ([1]; sc, 0.2 mg/kg): more than twice an long as compared to tirzepatide
- mean half life longer compared to tirzepatide ([1]; sc, 0.2 mg/kg): at least 50%

SMILES: CC[C@H](C)[C@H](NC(=O)[C@H](CC(C)C)NC(=O)[C@H](Cc1c[nH]c2ccccc12)NC(=O)[C@H](CCC(N)=O)NC(=O)[C@@H](NC(=O)[C@H](Cc1ccccc1)NC(=O)[C@H](C)NC(=O)[C@H](CCCCNC(=O)COCCOCCNC(=O)COCCOCCNC(=O)CC[C@H](NC(=O)CCCCCCCCCCCCCCCCCCP(=O)(O)O)C(=O)O)NC(=O)[C@H](CCC(N)=O)NC(=O)[C@H](C)NC(=O)[C@@H](NC(=O)[C@H](CCCCN)NC(=O)[C@H](CC(=O)O)NC(=O)[C@H](CC(C)C)NC(=O)C(C)(C)NC(=O)[C@@H](NC(=O)[C@H](CO)NC(=O)[C@H](Cc1ccc(O)cc1)NC(=O)[C@H](CC(=O)O)NC(=O)[C@H](CO)NC(=O)[C@@H](NC(=O)[C@H](Cc1ccccc1)NC(=O)[C@@H](NC(=O)CNC(=O)[C@H](CCC(=O)O)NC(=O)C(C)(C)NC(=O)[C@@H](N)Cc1ccc(O)cc1)[C@@H](C)O)[C@@H](C)O)[C@@H](C)CC)C(C)C)C(C)C)C(=O)N[C@@H](CCCNC(=N)N)C(=O)NCC(=O)NCC(=O)N1CCC[C@H]1C(=O)N[C@@H](CO)C(=O)N[C@@H](CO)C(=O)NCC(=O)N[C@@H](C)C(=O)N1CCC[C@H]1C(=O)N1CCC[C@H]1C(=O)N1CCC[C@H]1C(=O)N[C@@H](CO)C(N)=O [Compound 25] (H-Y[Aib]EGTFTSDYSI[Aib]LDKVAQK([AEEA-AEEA-γGlu-Nonadecanoyl(19-PO3H2)])AFVQWLIRGGPSSGAPPPS-NH2)
- AUC(0-inf) [1]: 287 µg·h/mL
- AUC(0-t) [1]: 272 µg·h/mL
- Cmax [1]: 1570 ng/mL
- Tmax [1]: 24 h
- half-life [1]: 4.88 days

SMILES: CC[C@H](C)[C@H](NC(=O)[C@H](CC(C)C)NC(=O)[C@H](Cc1c[nH]c2ccccc12)NC(=O)[C@H](CC(N)=O)NC(=O)[C@@H](NC(=O)[C@H](Cc1ccccc1)NC(=O)[C@H](C)NC(=O)[C@H](CCC(N)=O)NC(=O)[C@H](CCCCNC(=O)COCCOCCNC(=O)COCCOCCNC(=O)CC[C@H](NC(=O)CCCCCCCCCCCCCCCCCCP(=O)(O)O)C(=O)O)NC(=O)[C@H](C)NC(=O)[C@@H](NC(=O)[C@H](CCCCN)NC(=O)[C@H](CC(=O)O)NC(=O)[C@H](CC(C)C)NC(=O)C(C)(C)NC(=O)[C@@H](NC(=O)[C@H](CO)NC(=O)[C@H](Cc1ccc(O)cc1)NC(=O)[C@H](CC(=O)O)NC(=O)[C@H](CO)NC(=O)[C@@H](NC(=O)[C@H](Cc1ccccc1)NC(=O)[C@@H](NC(=O)CNC(=O)[C@H](CCC(=O)O)NC(=O)C(C)(C)NC(=O)[C@@H](N)Cc1ccc(O)cc1)[C@@H](C)O)[C@@H](C)O)[C@@H](C)CC)[C@@H](C)CC)C(C)C)C(=O)N[C@@H](C)C(=O)NCC(=O)NCC(=O)N1CCC[C@H]1C(=O)N[C@@H](CO)C(=O)N[C@@H](CO)C(=O)NCC(=O)N[C@@H](C)C(=O)N1CCC[C@H]1C(=O)N1CCC[C@H]1C(=O)N1CCC[C@H]1C(=O)N[C@@H](CO)C(N)=O [Compound 22] (H-Y[Aib]EGTFTSDYSI[Aib]LDKIAK([AEEA-AEEA-γGlu-Nonadecanoyl(19-PO3H2)])QAFVNWLIAGGPSSGAPPPS-NH2)
- AUC(0-inf) ([1]; sc, 0.2 mg/kg): 510 µg·h/mL
- AUC(0-t) ([1]; sc, 0.2 mg/kg): 417 µg·h/mL
- Cmax ([1]; sc, 0.2 mg/kg): 2380 ng/mL
- Tmax ([1]; sc, 0.2 mg/kg): 33.3 h
- half-life ([1]; sc, 0.2 mg/kg): 5.71 days
- mean half life as compared to tirzepatide (in words) ([1]; sc, 0.2 mg/kg): more than twice an long as compared to tirzepatide
- mean half life longer compared to tirzepatide ([1]; sc, 0.2 mg/kg): at least 50%

SMILES: CC[C@H](C)[C@H](NC(=O)[C@H](CC(C)C)NC(=O)[C@H](Cc1c[nH]c2ccccc12)NC(=O)[C@H](CCC(N)=O)NC(=O)[C@@H](NC(=O)[C@H](Cc1ccccc1)NC(=O)[C@H](C)NC(=O)[C@H](CCCCNC(=O)COCCOCCNC(=O)COCCOCCNC(=O)CC[C@H](NC(=O)CCCCCCCCCCCCCCCCCCC(=O)O)C(=O)O)NC(=O)[C@H](CCC(N)=O)NC(=O)[C@H](C)NC(=O)[C@@H](NC(=O)[C@H](CCCCN)NC(=O)[C@H](CC(=O)O)NC(=O)[C@H](CC(C)C)NC(=O)C(C)(C)NC(=O)[C@@H](NC(=O)[C@H](CO)NC(=O)[C@H](Cc1ccc(O)cc1)NC(=O)[C@H](CC(=O)O)NC(=O)[C@H](CO)NC(=O)[C@@H](NC(=O)[C@H](Cc1ccccc1)NC(=O)[C@@H](NC(=O)CNC(=O)[C@H](CCC(=O)O)NC(=O)C(C)(C)NC(=O)[C@@H](N)Cc1ccc(O)cc1)[C@@H](C)O)[C@@H](C)O)[C@@H](C)CC)[C@@H](C)CC)C(C)C)C(=O)N[C@@H](C)C(=O)NCC(=O)NCC(=O)N1CCC[C@H]1C(=O)N[C@@H](CO)C(=O)N[C@@H](CO)C(=O)NCC(=O)N[C@@H](C)C(=O)N1CCC[C@H]1C(=O)N1CCC[C@H]1C(=O)N1CCC[C@H]1C(=O)N[C@@H](CO)C(N)=O [TRZ, Tirzepatide, reference compound]
- AUC(0-inf) ([1]; sc, 0.2 mg/kg): 242 µg·h/mL
- AUC(0-t) ([1]; sc, 0.2 mg/kg): 237 µg·h/mL
- Cmax ([1]; sc, 0.2 mg/kg): 2250 ng/mL
- Tmax ([1]; sc, 0.2 mg/kg): 40 h
- half-life ([1]; sc, 0.2 mg/kg): 2.38 days
